Measured values published in patent US5281626A, “Benzenesulfonamide derivatives” (Eisai Co., Ltd., priority 1990, dated 1994).

Tests used:
[1] = test system: phospholipase A2 (PLA2) contained in the membrane fraction of rabbit heart; assay: Inhibitory activity against phospholipase A2 (PLA2) contained in the membrane fraction of rabbit heart; type: biochemical; conditions: CaCl2 added, 37° C., 30 minutes
Description: (§1) A. Inhibitory activity against phospholipase A2 (PLA2) contained in the membrane fraction of rabbit heart or the supernatant fraction thereof (method) An NZW male rabbit was anesthetized by the intravenous administration of pentobarbital sodium to take out its heart. This heart was washed with ice cooled physiological saline to recover a ventricle, followed by the addition of ice-cooled 0.25M sucrose/20 mM tris hydrochloride buffer (pH: 8.0) in an amount of 5 ml per g of the ventricle. The obtained mixture was mashed with a homogenizer in ice water for 30 minutes and centrifuged at 1,000 g for 10 min. The supernatant was further centrifuged at 105,000 g for 60 min. The centrifugation was conducted at 0° to 4° C. The obtained supernatant was used as such as the supernatant fraction for examination. The precipitate was suspended in the same buffer as that described above and used as the membrane fraction for examination. The protein concentrations of these fractions were each adjusted to 5 mg/ml as determined by Lowry method. […] The test tubes of the membrane fraction were kept at 37° C. for 30 minutes for incubation, while those of the supernatant fraction were kept at 37° C. for 5 minutes for incubation. Each incubation was stopped by the addition of 1 ml of Dole reagent. […] The amount of ^14 C was determined with a liquid scintillation counter. Mepacrine was selected as a comparative compound. (Results)

[2] = test system: phospholipase A2 (PLA2) contained in the supernatant fraction of rabbit heart; assay: Inhibitory activity against phospholipase A2 (PLA2) contained in the supernatant fraction of rabbit heart; type: biochemical; conditions: EGTA added, 37° C., 5 minutes
Description: as §1

Row | Structure (SMILES) | PLA2 -inhibitory activity IC30, membrane fraction [1] | PLA2 -inhibitory activity IC30, supernatant fraction [2]
1 | CN(C(=O)/C=C/c1ccc(S(C)(=O)=O)cc1)c1ccc(S(=O)(=O)NC2CCCCN(Cc3ccccc3)C2)cc1 (racemic) [Example 9, (±)-[1-benzyl-3-hexamethyleneimino]-4-{N-methyl N-[(E)-N-3-(4-methylsulfonylphenyl)-2-propenoyl]amino)benzenesulfonamide] | 0.015 µM | 61 µM
2 | CN(C(=O)/C=C/c1ccc(-n2ccnc2)cc1)c1ccc(S(=O)(=O)N[C@@H]2C[C@H]3CC[C@@H]2C3)cc1 (relative stereo) [Example 31, (±)-N-(exo-2-norbornyl)-4-{N-methyl-N-[(E)-3-[4-(1-imidazolyl)phenyl]-2-propenoyl]amino}benzenesulfonamide] | 0.42 µM | 29 µM
3 | CN(C(=O)/C=C/c1ccc(O)c(O)c1)c1ccc(S(=O)(=O)NC2Cc3ccccc3C2)cc1 [Example 2, N-(2-indanyl)-4-{N-methyl-N-[(E)-3-(3,4-dihydroxyphenyl)-2-propenoyl]amino}benzenesulfonamide] | 4.48 µM | 40 µM
4 | CN(C(=O)/C=C/c1ccc(OC(=O)CN)c(OC(=O)CN)c1)c1ccc(S(=O)(=O)NC2Cc3ccccc3C2)cc1 [Example 3, N-(2-indanyl)-4-{N-methyl-N-[(E)-3-[3,4-diglycyloxyphenyl)-2-propenoyl]amino}benzenesulfonamide] | 2.4 µM | 
5 | CN(C(=O)/C=C/c1ccc(S(C)(=O)=O)cc1)c1ccc(S(=O)(=O)NC2CCN(CCc3ccccc3)CC2)cc1 [Example 5, N-[1-(2-phenylethyl)-4-piperidyl]-4-{N-methyl-N-[(E)-3-(4-methylsulfonylphenyl) -2-propenoyl]amino}benzenesulfonamide] | 0.007 µM | 49 µM
6 | CN(C(=O)/C=C/c1ccc(S(C)(=O)=O)cc1)c1ccc(S(=O)(=O)NC2CCCCCC2)cc1 [Example 14, N-pycloheptyl-4-(N-methyl-N-[(E)-3-(4-methylsulfonylphenyl)-2-propenoyl]amino}benzenesulfonamide] | 0.016 µM | > 30 µM
7 | CN(C(=O)/C=C/c1ccc(S(C)(=O)=O)cc1)c1ccc(S(=O)(=O)NCCc2ccccn2)cc1 [Example 18, N-[2-(2-pyridyl)ethyl]-4-{N-methyl-N-[(E)-3-(4-methylsulfonylphenyl) -2-propenoyl]amino}benzenesulfonamide] | 0.18 µM | > 100 µM
8 | CN(C(=O)/C=C/c1ccc(S(C)(=O)=O)cc1)c1ccc(S(=O)(=O)N2CCCN(CC3CCCCC3)CC2)cc1 [Example 20, (E)-N-methyl-N-[4-(4-cyclohexylmethyl-1-homopiperazinyl)sulfonylphenyl]-3 (4 methylsulfonylphenyl)-2-propenamide] | 0.045 µM | 92 µM
9 | CN(C(=O)/C=C/c1ccc(S(C)(=O)=O)cc1)c1ccc(S(=O)(=O)N2CCCN(Cc3ccccc3)CC2)cc1 [Example 21, (E)-N-methyl-N-[4-(4-benzyl-1-homopiperazinyl)sulfonylphenyl]-3-(4-methylsulfonylphenyl)-2-propenamide] | 0.055 µM | > 100 µM
10 | CN(C(=O)/C=C/c1ccc(S(C)(=O)=O)cc1)c1ccc(S(=O)(=O)N2CCN(CCc3ccccc3)CC2)cc1 [Example 22, (E)-N methyl-N-{4-[4-(2-phenylethyl)-piperazinyl]sulfonylphenyl}-3-(4-methylsulfonylphenyl)-2-propenamide] | 0.050 µM | > 100 µM
11 | CN(C(=O)/C=C/c1ccc(C#N)cc1)c1ccc(S(=O)(=O)NC2CCCCCC2)cc1 [Example 25, N-cycloheptyl-4-{N-methyl-N-[(E)-3-(4-cyanophenyl)-2-propenoyl]amino}benzenesulfonamide] | 0.16 µM | 68 µM
12 | CN(C(=O)/C=C/c1ccc(C#N)cc1)c1ccc(S(=O)(=O)NC2CCN(Cc3ccccc3)CC2)cc1 [Example 26, N-(1-benzyl-4-piperidyl)-4-{N-methyl-N-[(E)-3-(4-cyanophenyl)-2-propenoyl]amino}benzenesulfonamide] | 0.24 µM | 59 µM
13 | CN(C(=O)/C=C/c1ccc(-n2ccnc2)cc1)c1ccc(S(=O)(=O)NC2CCCCCC2)cc1 [Example 29] | 0.45 µM | 90 µM
14 | CN(C(=O)/C=C/c1ccc(-n2ccnc2)cc1)c1ccc(S(=O)(=O)NC2CCCCCCC2)cc1 [Example 30, N-cyclooctyl-4-{N-methyl-N-[(E)-3-[4-(1-imidazolyl)phenyl]-2-propenoyl]amino}benzenesulfonamide] | 0.66 µM | > 100 µM
15 | CN(C(=O)/C=C/c1ccc([N+](=O)[O-])cc1)c1ccc(S(=O)(=O)NC2CCCCCC2)cc1 [Example 38, N-cycloheptyl-4-{N-methyl-N-[(E)-3-(4-nitrophenyl)-2-propenoyl]amino}benzenesulfonamide] | 0.12 µM | 29 µM
16 | CN(C(=O)/C=C/c1ccc(O)cc1)c1ccc(S(=O)(=O)NC2Cc3ccccc3C2)cc1 [Example 41, N-(2-indanyl)-4-{N-methyl-N-[(E)-3-(4-dihydroxyphenyl)-2-propenoyl]amino}benzenesulfonamide] | 0.98 µM | 46 µM
17 | CN(C(=O)/C=C/c1ccc(O)c(F)c1)c1ccc(S(=O)(=O)NC2CCCCCC2)cc1 [Example 43] | 3.49 µM | 62 µM
18 | CN(C(=O)/C=C/C=C/c1cc(Br)c(O)c(Br)c1)c1ccc(S(=O)(=O)NC2CCCCCC2)cc1 [Example 44, N-cycloheptyl-4-{N-methyl-N-[(2E, 4E)-5-(3,5-dibromo-4-hydroxyphenyl) -2,4-pentadienoyl]amino}benzenesulfonamide] | 5.1 µM | 39 µM
19 | CN(C(=O)/C=C/C=C/c1ccc(O)c(O)c1)c1ccc(S(=O)(=O)NC2CCc3ccccc3C2)cc1 (stereo not shown) [Example 48] | 1.7 µM | 32 µM
20 | CN(C(=O)/C=C/c1ccc(O)c(O)c1)c1ccc(S(=O)(=O)NC2CCCCCC2)cc1 [Example 49, N-cycloheptyl-4-{N-methyl-N-[(E)-3-(3,4-dihydroxyphenyl)-2-propenoyl]amino}benzenesulfonamide] | 1.8 µM | 56 µM
21 | CN(C(=O)/C=C/C=C/c1ccc(O)c(O)c1)c1ccc(S(=O)(=O)NC2CCCCCC2)cc1 [Example 50, N-cycloheptyl-4-{N-methyl N-[(2E, 4E)-5-(3,4-dihydroxyphenyl)-2,4-pentadienoyl]amino}benzenesulfonamide] | 1.05 µM | 38 µM
22 | CN(C(=O)/C=C/c1ccc(O)c(O)c1)c1ccc(S(=O)(=O)NC2CCCCC2)cc1 [Example 58, N-cyclohexyl-4-{N-methyl-N-[(E)-3-(3,4-dihydroxyphenyl)-2-propenoyl]amino}benzenesulfonamide] | 1.5 µM | 64 µM
23 | CN(C(=O)/C=C/c1ccc(O)c(O)c1)c1ccc(S(N)(=O)=O)cc1 [Example 65, 4-{N-methyl-N-[(E)-3-(3,4-dihydroxyphenyl)-2-propenoyl]amino}benzenesulfonamide] | 16 µM | 
24 | COc1ccc(/C(=C/C(=O)Nc2ccc(S(N)(=O)=O)cc2)c2cccnc2)cc1OC [Example 72] | 41 µM | 
25 | NS(=O)(=O)c1ccc(NC(=O)/C=C/c2ccc(O)c(O)c2)cc1 [Example 77] | 20 µM | > 100 µM
26 | COc1ccc(CCN2CCC(NS(=O)(=O)c3ccc(N(C)C(=O)/C=C/c4ccc(S(C)(=O)=O)cc4)cc3)CC2)cc1OC [Example 79] | 0.03 µM | > 100 µM
27 | Cc1cccc(CCN2CCC(NS(=O)(=O)c3ccc(N(C)C(=O)/C=C/c4ccc(S(C)(=O)=O)cc4)cc3)CC2)n1 [Example 81, N-[1-(2-(6-methyl-2-pyridyl)ethyl]-4-piperidyl-4-{N-methyl-N-(E)-3-(4-methylsulfonylphenyl)-2-propenoyl]amino}benzenesulfonamide] | 0.044 µM | > 100 µM
28 | CN(C(=O)/C=C/c1ccc(O)c(F)c1)c1ccc(S(=O)(=O)NC2CCCCCCC2)cc1 [Example 87, N-cyclooctyl-4-{N-methyl-N-[(E)-3-(3-fluoro-4-hydroxyphenyl)-2-propenoyl]amino}benzenesulfonamide] | 2.1 µM | 
